Results published in patent EP4721741A1, “PHARMACEUTICAL COMPOSITION, TOPICAL PREPARATION, AND PREPARATION METHOD THEREFOR AND USE THEREOF” (Lynk Pharmaceuticals Co. Ltd., priority 2023, dated 2024).

Assay: Pharmacokinetic (PK) study after topical application: plasma, stratum corneum, epidermis, dermis
Type: in vivo, Bama miniature pigs
Description: Twenty-four (12 per sex) male and female Bama miniature pigs were divided into 5 groups. The ointment was applied to an estimated 10% of the animal's body surface area.
Animals in group 1 and group 2 received a single topical application of sample 2A and sample 2B, respectively. Plasma, stratum corneum, epidermis, and dermis samples were collected before administration (0 hour, plasma only) and at 0.5, 1, 4, 8, 12, and 24 hours after administration.
Group 3 animals were topically administered ointment sample 2B once daily for 7 consecutive days. Plasma samples were collected on day 1 and day 7 before administration (0) and 0.5, 1, 4, 8, 12, and 24 hours after administration; and on days 3, 4, 5, and 6 before administration (0). […]
Group 5 animals received a single topical application of sample 3a (administered at 25 µL/m^2 with a concentration of 6 mg/mL), and blood and skin samples were collected before administration (0) and at 0.5, 1, 3, and 6 hours after administration. […] The homogenized samples were extracted using three volumes of acetonitrile and quantified against a standard curve utilizing an LC-MS/MS system.
The concentrations of the active pharmaceutical ingredient in plasma, stratum corneum, epidermis, and dermis samples were determined using a high-performance liquid chromatography-[…] (LC-MS/MS) method.

accumulation: exposure levels (AUC0-last and Cmax) in the stratum corneum, epidermis, and dermis (7 consecutive days of once-daily topical application of the ointment at 12 µg/cm^2, both sexes): no accumulation | Concentrations in plasma samples (all plasma samples, topical application, Bama miniature pigs): below the lower limit of quantification
SMILES: Cc1cnc(Nc2cnn(C3CC(C)(C)OC(C)(C)C3)c2)nc1-c1ccc(C(=O)NCC#N)cc1 [active pharmaceutical ingredient]
